Results on four compounds are retold here after PMC7774954, “Interactomic affinity profiling by holdup assay: Acetylation and distal residues impact the PDZome-binding specificity of PTEN phosphatase” (PLoS ONE, 2020).

A word on the pKd: it is −log10 of the Kd, conventionally taken in molar units. A high value points to a low Kd.

pKd: −log10 of the molar value. *1 amine or outer side, *2 acyl side, *3 side chain or, on linkers, in order; H or OH if unused. Where a SMILES comes first, the peptide text is derived from it. The star is where a group is joined. X1 = O=C(CCCC[C@@H]1SC[C@@H]2NC(=O)N[C@@H]21)NCCCOCCOCCOCCCN*; Suc = O=C(CCC(=O)[*:2])[*:1]

For one assay, the system named is INADL-9. Nature of the assay: Holdup assay, INADL-9. It is filed as binding, human.
The next assay deals with DLG1-1 (Homo sapiens, UniProt Q12959). Kind of assay: Holdup assay, DLG1-1. Type of assay: binding.
Another assay deals with DLG5-3. Kind of assay: Holdup assay, DLG5-3. Type of assay: binding, human.
In a further assay the target is T1, MAST2 PDZ 1 (Homo sapiens, UniProt Q6P0Q8).
T1 construct: made in house; host or cells: E. coli
T1 sequence (Q6P0Q8 1104-1192 limits assumed): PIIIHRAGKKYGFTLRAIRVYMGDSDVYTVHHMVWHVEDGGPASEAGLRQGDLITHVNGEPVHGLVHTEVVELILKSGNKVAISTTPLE
Kind of assay: Holdup assay, MAST2-1. It is filed as binding. On the procedure: (§1) The holdup assay was performed on a Tecan freedom Evo200 robot with 384-well plates in singlicate for the three 11-mer PTEN variants and the 13-mer PTEN peptide as described in [31, 32]. Briefly, prior to interaction assay, 2.5 μL of streptavidin resin was saturated in each well with 20 μL of biotinylated PBM peptides (42 μM) and then washed twice with an excess of free biotin, while the reference resin was incubated only with biotin. Right before the holdup experiment, the PDZ library was spiked with an internal standard of lysozyme. Then, the biotin- or PBM-saturated resin was incubated, each in a distinct well of a 384-well plate, with complete cell lysates diluted so that the concentration of the tag-PDZ present in the crude extract is adjusted at 4 μM. After a sufficient time to reach complex equilibrium (15 min.), a fast and mild filtration step is performed and the tag-PDZ concentrations were measured by capillary electrophoresis instrument (LabChip GXII, PerkinElmer, Massachusets, USA). Standard markers were used to convert migration time into molecular weight on the LabChip software and inappropriate molecular weight markers were corrected or excluded.
(§2) For filtered data, the BI was extracted with the following equation (Eq 1) that estimates the depleted fraction after superimposition of the sample and reference electropherograms: BI=Iref−Ilig/Iref (1) where Iref and Ilig are the intensities of the tag-PDZ peaks measured, for each PDZ domain/PBM peptide interaction pair, in the biotin reference and the PBM electropherograms, respectively.
(§3) BIs were transformed into dissociation constants (KD) using the following formula: KD=([PDZtot]−BI·[PDZtot])·([PBMtot]−BI·[PDZtot])/BI·[PDZtot] (2) where [PDZtot] and [PBMtot] correspond to the total concentrations of the PDZ domain (usually around 4 μM) and the PBM peptide used during the assay. Since the PBMtot concentration in the resin during the holdup assay parameter may differ from one peptide to another and remains unknown, it is impossible to directly convert BI values into KD constants. We systematically determined the KD constants for a subset of PDZ/PBM pairs by competitive FP. […] For each PBM, the average peptide concentration was calculated after outlier rejection based on the absolute distances from the median as compared to three times the standard deviation (3σ rule), with never more than 2 values rejected.

The test system of a further assay is INADL-5. Kind of assay: Holdup assay, INADL-5. Type of assay: binding, human.
The target of the next assay is T2, NHERF2 PDZ 1 (Homo sapiens, UniProt Q15599).
T2 construct: made in house; host or cells: E. coli
T2 sequence (Q15599 11-90 limits assumed): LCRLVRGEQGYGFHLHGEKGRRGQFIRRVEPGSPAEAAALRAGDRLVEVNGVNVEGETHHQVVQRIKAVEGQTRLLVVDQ
Nature of the assay: Holdup assay, NHERF2-1. Type of assay: binding. Particulars: PDZ domain NHERF2-1. The procedure:
as §1, §2, §3

The subject of a further assay is LDB3-1. Kind of assay: Holdup assay, LDB3-1. It is filed as binding, human.
The next assay relates to IL16-1. Nature of the assay: Holdup assay, IL16-1. It is filed as binding, human.
The target of the next assay is DLG2-1 (Homo sapiens, UniProt Q15700). Kind of assay: Holdup assay, DLG2-1. Particulars: for BI / LogKD: DLG2-1. Type of assay: binding.
Another assay concerns the target T3, PTPN13 PDZ 2 (Homo sapiens, UniProt Q12923).
T3 construct: made in house; host or cells: E. coli
T3 sequence (Q12923 1368-1452 limits assumed): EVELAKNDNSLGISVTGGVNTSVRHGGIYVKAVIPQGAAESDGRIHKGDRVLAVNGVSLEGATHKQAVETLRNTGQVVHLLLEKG
Kind of assay: Holdup assay, PTPN13-2. Type of assay: binding. The following applies: for BI: PDZ domain PTPN13-2. The procedure: as §1, §2, §3

A further assay deals with MAGI1-6. Nature of the assay: Holdup assay, MAGI1-6. Type of assay: binding, human.
The next assay relates to GRID2IP-1. Nature of the assay: Holdup assay, GRID2IP-1. Type of assay: binding, human.
The subject of a further assay is DVL2-1. Kind of assay: Holdup assay, DVL2-1. It is filed as binding, human.

Take `CC[C@H](C)[C@H](NC(=O)[C@H](CCC(N)=O)NC(=O)[C@@H](NC(=O)[C@H](Cc1c[nH]cn1)NC(=O)[C@H](CCC(N)=O)NC(=O)[C@H](CC(=O)O)NC(=O)[C@H](CCC(=O)O)NC(=O)[C@H](CC(=O)O)NC(=O)CCC(=O)NCCCOCCOCCOCCCNC(=O)CCCC[C@@H]1SC[C@@H]2NC(=O)N[C@@H]21)[C@@H](C)O)C(=O)N[C@H](C(=O)N[C@@H](CCCNC(=N)N)C(=O)N[C@H](C(=O)O)C(C)C)[C@@H](C)O` [PTEN_KR] ({X1-Suc}-DEDQHTQITRV-OH): the BI with INADL-9 is 0.068; at DLG1-1 (DLG1-1), 0.215; in the assay on DLG5-3, -0.084; at MAST2 PDZ 1 (MAST2-1), 0.767; with INADL-5, -0.046; on NHERF2 PDZ 1, 0.169. For the same compound, the BI in the assay on LDB3-1 is reported as -0.05; in the assay with IL16-1, 0.06; on DLG2-1 it was 0.191; at PTPN13 PDZ 2, 0.138; with MAGI1-6, 0.051; in the assay with GRID2IP-1 it was -0.033. In the assay with DVL2-1, this compound showed a BI of -0.027. Also, the LogKD in the assay on INADL-9, in the assay on DLG5-3, in the assay on INADL-5, with LDB3-1, in the assay with IL16-1 and in the assay with MAGI1-6 was 3.655 in each case. Besides, the LogKD with GRID2IP-1 and in the assay with DVL2-1 was 3.655 in each case. Besides, the pKd is 4.05 on DLG1-1 and 5.18 on MAST2 PDZ 1.

With `CC[C@H](C)[C@H](NC(=O)[C@H](CCC(N)=O)NC(=O)[C@@H](NC(=O)[C@H](Cc1c[nH]cn1)NC(=O)[C@H](CCC(N)=O)NC(=O)[C@H](CC(=O)O)NC(=O)[C@H](CCC(=O)O)NC(=O)[C@H](CC(=O)O)NC(=O)[C@H](Cc1ccccc1)NC(=O)[C@@H]1CCCN1C(=O)CCC(=O)NCCCOCCOCCOCCCNC(=O)CCCC[C@@H]1SC[C@@H]2NC(=O)N[C@@H]21)[C@@H](C)O)C(=O)N[C@H](C(=O)N[C@@H](CCCCN)C(=O)N[C@H](C(=O)O)C(C)C)[C@@H](C)O` [PTEN_13] ({X1-Suc}-PFDEDQHTQITKV-OH), the BI is reported as -0.062 in the assay on INADL-9; 0.011 at DLG1-1 (DLG1-1); 0.002 with DLG5-3; 0.88 on MAST2 PDZ 1 (MAST2-1); -0.039 in the assay on INADL-5; 0.11 at NHERF2 PDZ 1. Moreover, the BI in the assay with LDB3-1 is listed as -0.021; with IL16-1, 0.018; on DLG2-1, 0.035; at PTPN13 PDZ 2, 0.482; in the assay on MAGI1-6 it was 0.072; in the assay on GRID2IP-1, 0.044. Moreover, the BI in the assay with DVL2-1 is given as -0.026. Further, the LogKD at DLG1-1 (DLG1-1) and at DLG2-1 was 3.826 each time. Further, the values for the pKd at MAST2 PDZ 1 and at PTPN13 PDZ 2 were 5.89 and 4.79, respectively.

As to `CC[C@H](C)[C@H](NC(=O)[C@H](CCC(N)=O)NC(=O)[C@@H](NC(=O)[C@H](Cc1c[nH]cn1)NC(=O)[C@H](CCC(N)=O)NC(=O)[C@H](CC(=O)O)NC(=O)[C@H](CCC(=O)O)NC(=O)[C@H](CC(=O)O)NC(=O)CCC(=O)NCCCOCCOCCOCCCNC(=O)CCCC[C@@H]1SC[C@@H]2NC(=O)N[C@@H]21)[C@@H](C)O)C(=O)N[C@H](C(=O)N[C@@H](CCCCN)C(=O)N[C@H](C(=O)O)C(C)C)[C@@H](C)O` [PTEN_11], the BI in the assay with INADL-9 is 0.014; at DLG1-1 (DLG1-1) it was 0.109; in the assay on DLG5-3, 0.034; at MAST2 PDZ 1 (MAST2-1) it was 0.711; with INADL-5, -0.044; at NHERF2 PDZ 1, 0.099. In addition, the BI in the assay on LDB3-1 is -0.027; in the assay with IL16-1, -0.017; on DLG2-1, 0.034; on PTPN13 PDZ 2, 0.184; with MAGI1-6, -0.04; in the assay on GRID2IP-1 it was -0.012. The BI in the assay with DVL2-1 is on record as -0.008. The LogKD with INADL-9, in the assay on DLG5-3, in the assay on INADL-5, in the assay on LDB3-1, in the assay with IL16-1 and at DLG2-1 was 3.519 throughout. Moreover, the LogKD in the assay with MAGI1-6, in the assay with GRID2IP-1 and in the assay on DVL2-1 was 3.519 in each case. This compound had a pKd at MAST2 PDZ 1 of 4.90. In addition, the “BI (binding intensity)” value on MAST2 PDZ 1 (MAST2-1, holdup, singlicate, 0.00 no binding to 1.00 strong binding) came to 0.71.

As to `CC[C@H](C)[C@H](NC(=O)[C@H](CCC(N)=O)NC(=O)[C@@H](NC(=O)[C@H](Cc1c[nH]cn1)NC(=O)[C@H](CCC(N)=O)NC(=O)[C@H](CC(=O)O)NC(=O)[C@H](CCC(=O)O)NC(=O)[C@H](CC(=O)O)NC(=O)CCC(=O)NCCCOCCOCCOCCCNC(=O)CCCC[C@@H]1SC[C@@H]2NC(=O)N[C@@H]21)[C@@H](C)O)C(=O)N[C@H](C(=O)N[C@@H](CCCCNC(C)=O)C(=O)N[C@H](C(=O)O)C(C)C)[C@@H](C)O` [PTEN_Ac], the BI in the assay on INADL-9 was 0.072; at DLG1-1 (DLG1-1) it was 0.168; with DLG5-3, -0.047; on MAST2 PDZ 1 (MAST2-1) it was 0.858; with INADL-5, -0.076; at NHERF2 PDZ 1, 0.078. Moreover, the BI was -0.04 in the assay with LDB3-1; 0.039 in the assay on IL16-1; 0.211 on DLG2-1; 0.044 at PTPN13 PDZ 2; 0.096 in the assay on MAGI1-6; -0.067 in the assay with GRID2IP-1. Moreover, the LogKD with INADL-9, in the assay on DLG5-3, with INADL-5, with LDB3-1, in the assay with IL16-1 and with MAGI1-6 was 3.605 each time. The LogKD in the assay on GRID2IP-1 is 3.605. For the same compound, the pKd is 5.39 on MAST2 PDZ 1 and 3.99 at DLG2-1.
